Experimental data taken from patent publication US5232923A, “Catechol derivatives and pharmaceutical preparations containing same” (Mitsui Toatsu Chemicals, Incorporated, priority 1988, dated 1993).
Where two headings read alike, the source gives them in different places.

Key:
[1] = system: production and secretion of NGF in mouse L-M cells; experiment: Promoting activity for the production and secretion of NGF in mouse L-M cells (ELISA of medium after 24 h); assay type: cell-based; conditions: L-M cells; for fold induction at 200 µM / fold induction at 400 µM: Mus musculus, 24 h, fold increase over control (1.00); for fold induction at 200 µM / NGF Concentration: Table 2, sample concentration 0.2 mM; for fold induction at 200 µM: read-out: NGF Increase Ratio; for NGF Concentration / NGF L-M Cell Concentration: 24 hours; for NGF Concentration: mean of four determinations, control 0.34; for fold induction at 400 µM / NGF L-M Cell Concentration: Table 5, 0.4 mM; for fold induction at 400 µM: read-out: NGF L-M Cell Increase Ratio; for NGF L-M Cell Concentration: control 0.87
Protocol: Promoting activity for the production and secretion of NGF in mouse L-M cells
The medium was cultured for 3 days at a temperature of 37° C. […] The sample of the derivative tested is contained in the medium at a prescribed concentration as illustrated in the Tables. […] Data are expressed as fold increase in NGF content of the medium over that cultivated in the absence of the derivative to be tested. […] Data are presented as the mean of four determinations. The results are illustrated in Tables 1-5.

[2] = system: production and secretion of NGF in mouse brain astroglial cells; experiment: Promoting activity for the production and secretion of NGF in mouse brain astroglial cells (ELISA of medium after 24 h); assay type: cell-based; conditions: for fold induction at 400 µM / fold induction at 200 µM: Mus musculus, 24 h; for NGF Concentration / NGF Astroglial Cell Concentration: 24 hours; for NGF Astroglial Cell Concentration: control 31.8
Protocol: Promoting activity for the production and secretion of NGF in mouse brain astroglial cells
The experiment was performed by inducing astroglial cells from the mouse forebrain to a culture system according to the procedures of S. Furukawa et al. which is described in Biochem. Biophys. Res. Commun., 136, 57-63 (1986).
Forebrains of 8-days old mice were dissected out and cut into small pieces. The pieces were washed with calcium- and magnesium-free phosphate-bufferedsaline (hereinafter abbreviated as PBS), treated with 0.25% trypsin containing PBS at 37° C. for 30 minutes and triturated with a Pasteur pipet to give a suspension. Cells and cell clumps were recovered by centrifugation at 200 xg for 5 minutes. They were cultured in Dulbecco modified Eagle's medium (a product of Gibco Co. hereinafter abbreviated as DMEM) containing 10% fetal calf serum, 50 μ units/ml of penicillin, and 50 μg/ml of streptomycin, for 10 to 14 days with medium changes every 3 days. After completing confluency, the cells were dissociated by trypsin treatment and recultured in new culture flasks. This procedure was repeated further twice and more. The culture became a uniform cell cluster. The cell cluster for use in this invention can be stained not less than 97% in accordance with the PAP staining method (peroxidase/[…] staining method) using anti-human glial fibrillar acidic protein (GFAP) rabbit antiserum. The cells will hereinafter be referred to as astroglial cells.
Astroglial cells were innoculated in 24-well plates having a well surface area of 2.1 cm^2 (a product of Falcon Co.) at a cell density of about 3×10^4 cells/well and cultured for 3 days in DMEM medium supplemented with 10% of fetal calf serum. After completing confluency about ([…]), the medium was changed to DMEM medium (0.5 ml/well) supplemented with 0.5% of bovine serum albumin (fraction V) and cultured for 3 days. The culture was further continued with medium changes every 3 days. After cells were practically synchronized in the quiscent stage, the medium was changed to 0.5 ml of the same medium and containing a prescribed concentration of test sample as illustrated in the Tables. NGF in the medium after cultivating for 24 hours was determined by the ELISA as mentioned above. Data are expressed as fold increase in NGF content over that in the absence of the test sample. The lower detection limit of the ELISA is 0.25 pg/ml and the NGF content of control medium was normally 1-10 pg/0.5 ml/well. Data are presented as the mean of four determinations. The results are illustrated in Tables 1-5.

[3] = Table 4, sample concentration 0.4 mM, fold increase over control, read-out: NGF Increase Ratio
[4] = Table 4, sample concentration 0.4 mM
[5] = Table 4, sample concentration 0.2 mM, fold increase over control, read-out: NGF Increase Ratio
[6] = Table 4, sample concentration 0.2 mM
[7] = Table 5, 0.4 mM, fold increase over control (1.00), read-out: NGF Astroglial Cell Increase Ratio

CCOC(=O)CCc1ccc(OC(C)=O)c(OC(C)=O)c1 [Compound 47, Ethyl 3,4-diacetoxyphenylpropionate]
fold induction at 200 µM [1]: 6.29
NGF Concentration [1]: 2.14 ng/well
fold induction at 400 µM [2, 3]: 5.11
NGF Concentration [2, 4]: 220.8 ng/well

CCCCOC(=O)CCc1ccc(OC(C)=O)c(OC(C)=O)c1 [Compound 49]
fold induction at 200 µM [1]: 6.29
NGF Concentration [1]: 2.14 ng/well
fold induction at 400 µM [2, 3]: 5.18
NGF Concentration [2, 4]: 223.7 ng/well

CCOC(=O)Cc1ccc(OC(C)=O)c(OC(C)=O)c1 [Compound 51]
fold induction at 200 µM [1]: 5.82
NGF Concentration [1]: 1.98 ng/well
fold induction at 400 µM [2, 3]: 4.5
NGF Concentration [2, 4]: 194.6 ng/well

CCOC(=O)CCCc1ccc(OC(C)=O)c(OC(C)=O)c1 [Compound 55]
fold induction at 200 µM [1]: 5.82
NGF Concentration [1]: 1.98 ng/well
fold induction at 400 µM [2, 3]: 4.39
NGF Concentration [2, 4]: 189.7 ng/well

NC(=O)CCc1ccc(O)c(O)c1 [Compound 58]
fold induction at 200 µM [1]: 5.53
NGF Concentration [1]: 1.88 ng/well
fold induction at 200 µM [2, 5]: 5.32
NGF Concentration [2, 6]: 230.0 ng/well

CCNC(=O)CCc1ccc(O)c(O)c1 [Compound 60]
fold induction at 200 µM [1]: 5.41
NGF Concentration [1]: 1.84 ng/well
fold induction at 200 µM [2, 5]: 6.95
NGF Concentration [2, 6]: 300.4 ng/well

CCNC(=O)Cc1ccc(O)c(O)c1 [Compound 64]
fold induction at 200 µM [1]: 5.32
NGF Concentration [1]: 1.81 ng/well
fold induction at 200 µM [2, 5]: 4.65
NGF Concentration [2, 6]: 200.8 ng/well

CCNC(=O)CCCc1ccc(O)c(O)c1 [Compound 69]
fold induction at 200 µM [1]: 5.53
NGF Concentration [1]: 1.88 ng/well
fold induction at 200 µM [2, 5]: 4.49
NGF Concentration [2, 6]: 194.1 ng/well

CN(C)C(=O)CCc1ccc(O)c(O)c1 [Compound 72]
fold induction at 200 µM [1]: 5.91
NGF Concentration [1]: 1.94 ng/well
fold induction at 200 µM [2, 5]: 6.5
NGF Concentration [2, 6]: 280.6 ng/well

CC(=O)Oc1ccc(CCC(N)=O)cc1OC(C)=O [Compound 73]
fold induction at 200 µM [1]: 5.68
NGF Concentration [1]: 2.01 ng/well
fold induction at 400 µM [2, 3]: 7.65
NGF Concentration [2, 4]: 330.6 ng/well

CCNC(=O)CCc1ccc(OC(C)=O)c(OC(C)=O)c1 [Compound 74]
fold induction at 200 µM [1]: 5.85
NGF Concentration [1]: 1.93 ng/well
fold induction at 400 µM [2, 3]: 6.53
NGF Concentration [2, 4]: 282.2 ng/well

CCNC(=O)Cc1ccc(OC(C)=O)c(OC(C)=O)c1 [Compound 76]
fold induction at 200 µM [1]: 5.47
NGF Concentration [1]: 1.88 ng/well
fold induction at 400 µM [2, 3]: 4.84
NGF Concentration [2, 4]: 209.1 ng/well

CCNC(=O)CCCc1ccc(OC(C)=O)c(OC(C)=O)c1 [Compound 79]
fold induction at 200 µM [1]: 5.35
NGF Concentration [1]: 1.82 ng/well
fold induction at 400 µM [2, 3]: 4.57
NGF Concentration [2, 4]: 197.3 ng/well

CC(=O)Oc1ccc(CCC(=O)N(C)C)cc1OC(C)=O [Compound 81]
fold induction at 200 µM [1]: 5.76
NGF Concentration [1]: 1.96 ng/well
fold induction at 400 µM [2, 3]: 6.33
NGF Concentration [2, 4]: 273.5 ng/well

CCCCNC(=O)CCc1ccc(O)c(O)c1 [Compound 84, N-n-Butyl-3,4-dihydroxyphenylpropionamide]
fold induction at 400 µM [1]: 6.2
NGF L-M Cell Concentration [1]: 5.39 ng/well
fold induction at 400 µM [2, 7]: 33.1
NGF Astroglial Cell Concentration ([2]; Table 5, 0.4 mM): 539.5 ng/well

CCCCNC(=O)CCc1ccc(OC(C)=O)c(OC(C)=O)c1 [Compound 85, N-n-Butyl-3,4-diacetoxyphenylpropionamide]
fold induction at 400 µM [1]: 6.8
NGF L-M Cell Concentration [1]: 5.92 ng/well
fold induction at 400 µM [2, 7]: 33.6
NGF Astroglial Cell Concentration ([2]; Table 5, 0.4 mM): 547.7 ng/well
